Where two headings read alike, the source gives them in different places.
What was measured:
[1] = Plasma nutrikinetics of flavanol metabolites after a single serving of soluble cocoa product (HPLC-ESI-QToF-MS); format: in vivo, human; conditions: for AUC / Tmax / Cmax: both sexes, oral, mean ± SD, n = 13; for AUC: human plasma 0-8 h, read-out: AUC; for Tmax / Cmax: human plasma; for Tmax: read-out: Tmax; for Cmax: read-out: Cmax; for Detection of un-metabolized compound in the collected biological fluids: plasma and urine, CC and CC-PP
Procedure: The study was carried out in thirteen healthy subjects (3 men and 10 women); the mens’ average age and body mass index were 26.67 ± 3.21 year and 22.47 ± 2.97 kg/m^2, respectively, and womens’ were 32.60 ± 9.85 year and 23.36 ± 3.73 kg/m^2, respectively. They were non-smoker, non-vegetarian, non-pregnant women, who were not taking any medication or nutritional supplements, and were not suffering from any chronic pathology or gastrointestinal disorder. The sample size was estimated attending to similar previous bioavailability studies. The volunteers gave their informed consent prior to participation.
The present randomized, single-blind study was carried out at the Human Nutrition Unit (HNU) of the Institute of Food Science, Technology and Nutrition (ICTAN). Volunteers attended the HNU on two days, separated by two weeks. Three days previous to each visit, participants were instructed not to consume cocoa products (chocolate, soluble cocoa, etc.), juices, tea, wine, grape must, oranges, tangerines, apples, grapes, strawberries or other berries, beets, onions, soybeans and soy derivatives. In addition, volunteers were asked to complete a 24 h food intake recall the day before they attended the HNU in order to monitor any possible food restriction incompliance.
On each intervention day, volunteers arrived at the HNU after an overnight fast. Prior to the intake of the soluble cocoa product, a nurse inserted a cannula in the cubital vein of the non-prevailing arm of the volunteers and blood samples were collected into EDTA-coated tubes at baseline (t = 0) and 0.5, 1, 2, 3, 4, 6, and 8 h after consuming the corresponding cocoa product. The soluble cocoa products, either 15 g of CC or 25 g CC-PP, were dissolved in 200 mL of semi-skimmed milk following manufacturer’s preparation instructions. Plasma was separated by centrifugation (10 min, 3000 rpm, 4 °C) and stored at −80 °C until further analysis. Urine samples were collected at different time intervals (t = −2–0, 0–4, 4–8, 8–12, and 12–24 h) in urine collection flasks that contained 0.5 g of ascorbic acid as preservative and were aliquoted and frozen at −20 °C until analysis. A polyphenol-free breakfast, lunch and afternoon snack were provided 2 h, 4 h, and 8 h after consumption of cocoa products, and water and isotonic beverages were available ad libitum.
A liquid–liquid extraction and protein precipitation with acetonitrile was used to isolate metabolites from plasma. A 1 mL defrosted plasma sample was mixed with 50 μL of ascorbic acid (0.2 g/mL). After vortexing the aqueous mixture, it was added drop wise to 750 μL of cold acetonitrile and vortexed for 2 min before centrifuging at 12,000 rpm for 10 min at 4 °C. The supernatant was separated, and the pellet was re-extracted twice more following the same procedure. Supernatants were combined and reduced to dryness under a stream of nitrogen at 30 °C. The dried samples were resuspended in 150 μL of aqueous formic acid (0.1%) containing 10% acetonitrile acidified with 0.1% formic acid and centrifuged at 4 °C for 20 min at 14,000 rpm. The final supernatant was collected, filtered (0.45 μm pore-size, cellulose-acetate membrane filters, Albet, Dassel (Germany)) and 30 μL were analyzed by high-performance liquid chromatography coupled to electrospray ionisation and quadrupole time-of-flight mass spectrometry (HPLC-ESI-QToF-MS).
Analyses were performed on an Agilent 1200 series LC system coupled to an Agilent 6530A Accurate-Mass Quadrupole Time-Of-Flight (Q-ToF) with ESI-Jet Stream Technology (Agilent Technologies). Compounds were separated on a reverse-phase Ascentis Express C18 (15 cm × 3 mm, […]) column (Sigma-Aldrich Química, Madrid) preceded by a Supelco 55215-U guard column at 30 °C. […]

[2] = Urinary excretion of flavanol metabolites (0-24 h) after a single serving of soluble cocoa product (HPLC-ESI-QToF-MS); format: in vivo, human; conditions: for Excreted in urine, Basal: basal urine (−2–0 h, before intake); for Excreted in urine, Basal / Excreted in urine, Total / Excreted in urine, 0–4 h / Excreted in urine, 4–8 h / Excreted in urine, 8–12 h / Excreted in urine, 12–24 h: mean ± SD, n = 13; for Excreted in urine, Total: 24 h urine; for Detection of un-metabolized compound in urine: any of the interventions (CC, CC-PP)
How it was run: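 Fasted women drank 15 g CC or 25 g CC-PP soluble cocoa in 200 mL semi-skimmed milk, in a randomized, single-blind design with visits two weeks apart and a 3-day low-polyphenol diet beforehand. Excreted amounts were normalized to urine volume per interval, quantified against standards or precursor calibration curves.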

[3] = parameters: method as in PMID 23864538; conditions: based on recovery in the perfusion fluid, eight volunteers; cited from earlier work
[4] = cited from earlier work
[5] = 19.8 mg, after CC (19.80 mg flavanols)
[6] = after CC-PP (68.25 mg flavanols)
[7] = after CC (15 g in 200 mL semi-skimmed milk, 19.80 mg flavanols)
[8] = after CC-PP (25 g in 200 mL semi-skimmed milk, 68.25 mg flavanols)

Row | Structure (SMILES) | AUC [1, 5] [µM·h] | Tmax [1, 5] [h] | AUC [1, 6] [µM·h] | Cmax [1, 7] [nM] | Tmax [1, 6] [h] | Cmax [1, 8] [nM] | Excreted in urine, Total ([2]; after CC (19.80 mg flavanols)) [µmol] | Excreted in urine, 0–4 h ([2]; after CC (19.80 mg flavanols)) | Excreted in urine, 4–8 h ([2]; after CC (19.80 mg flavanols)) [µmol] | Excreted in urine, 8–12 h ([2]; after CC (19.80 mg flavanols)) | Excreted in urine, 12–24 h ([2]; after CC (19.80 mg flavanols)) | Excreted in urine, Total [2, 6] [µmol] | Excreted in urine, 0–4 h [2, 6] | Excreted in urine, 4–8 h [2, 6] [µmol] | Excreted in urine, 8–12 h [2, 6] | Excreted in urine, 12–24 h [2, 6] | further results
1 | O=C1CCC(Cc2ccc(O)c(OC3OC(C(=O)O)C(O)C(O)C3O)c2)O1 (stereo not shown) [HPVL-3′-glucuronide, 5-(4′-Hydroxyphenyl)-γ-valerolactone-3′-glucuronide] | 0.106 ± 0.021 | 5.6 ± 0.8 | 1.43 ± 0.727 | 31 ± 4 | 5 ± 1.2 | 357 ± 200 | 0.600 ± 0.232 | <L.Q. | 0.497 ± 0.204 | 0.103 ± 0.028 µmol | <L.Q. | 2.358 ± 0.766 | <L.Q. | 1.802 ± 0.567 | 0.274 ± 0.060 µmol | 0.282 ± 0.130 µmol | Excreted in urine, Basal ([2]; CC intervention): <L.Q.; Excreted in urine, Basal ([2]; CC-PP intervention): <L.Q.
2 | COc1cc([C@H]2Oc3cc(OS(=O)(=O)O)cc(O)c3C[C@H]2O)ccc1O (single isomer, unassigned) [Epicatechin-methoxy-sulfate (isomer 2), Epicatechin-methoxy-sulfate] |  |  | 0.145 ± 0.107 |  | 1.3 ± 0.5 | 41 ± 4 | 0.428 ± 0.062 | 0.181 ± 0.032 µmol | 0.247 ± 0.030 | <L.Q. | <L.Q. | 1.200 ± 0.293 | 0.566 ± 0.152 µmol | 0.557 ± 0.120 | 0.077 ± 0.021 µmol | <L.Q. | 
3 | Oc1cc(O)c2c(c1)O[C@H](c1ccc(O)c(O)c1)[C@H](O)C2 [epicatechin] |  |  |  |  |  |  |  |  |  |  |  |  |  |  |  |  | Jejunal absorption, average [3]: ~ 46%; Detection of un-metabolized compound in the collected biological fluids [1]: Neither un-metabolized epicatechin and catechin nor procyanidins B1 and B2 were detected; Detection of un-metabolized compound in urine [2]: Neither epicatechin nor PB2 dimer was detected in urine; Excretion ([4]; after ingestion of chocolate providing 220 mg of flavanols): 29.8%; Excretion ([4]; after ingestion of cocoa providing 220 mg of flavanols): 25.3%
4 | O=C1CCC(Cc2ccc(O)c(O)c2)O1 (stereo not shown) [DHPVL, 5-(3′,4′-Dihydroxyphenyl)-γ-valerolactone] | 0.124 ± 0.073 | 6 ± 1.6 | 0.192 ± 0.029 | 35 ± 8 | 5.5 ± 1.4 | 37 ± 7 | 0.146 ± 0.032 | <L.Q. | 0.146 ± 0.032 | <L.Q. | <L.Q. | 1.084 ± 0.199 | <L.Q. | 0.628 ± 0.087 | 0.174 ± 0.029 µmol | 0.282 ± 0.082 µmol | Excreted in urine, Basal ([2]; CC intervention): <L.Q.; Excreted in urine, Basal ([2]; CC-PP intervention): <L.Q.
5 | COc1cc([C@H]2Oc3cc(O)cc(OS(=O)(=O)O)c3C[C@H]2O)ccc1O (single isomer, unassigned) [Epicatechin-methoxy-sulfate (isomer 1), Epicatechin-methoxy-sulfate] | 0.122 ± 0.025 | 1.3 ± 0.6 | 0.173 ± 0.107 | 31 ± 3 | 1.1 ± 0.6 | 41 ± 2 | 4.428 ± 0.800 | 2.717 ± 0.457 µmol | 1.300 ± 0.197 | 0.154 ± 0.031 µmol | 0.257 ± 0.114 µmol | 12.481 ± 2.243 | 8.642 ± 1.434 µmol | 3.277 ± 0.644 | 0.330 ± 0.095 µmol | 0.232 ± 0.070 µmol | 
6 | Oc1cc(O)c2c(c1)O[C@H](c1ccc(O)c(O)c1)[C@H](O)[C@H]2c1c(O)cc(O)c2c1O[C@H](c1ccc(O)c(O)c1)[C@H](O)C2 [PB2 dimer, procyanidin B2] |  |  |  |  |  |  |  |  |  |  |  |  |  |  |  |  | Detection of un-metabolized compound in the collected biological fluids [1]: Neither un-metabolized epicatechin and catechin nor procyanidins B1 and B2 were detected; Detection of un-metabolized compound in urine [2]: Neither epicatechin nor PB2 dimer was detected in urine
7 | O=C(O)C1OC(Oc2cc(C3Oc4cc(O)cc(O)c4CC3O)ccc2O)C(O)C(O)C1O (stereo not shown) [Epicatechin-3′-glucuronide] | 0.072 ± 0.028 | 1.5 ± 0.5 | 0.11 ± 0.066 | 25 ± 1 | 1.4 ± 0.8 | 37 ± 1 | 0.622 ± 0.130 | 0.355 ± 0.071 µmol | 0.267 ± 0.059 | <L.Q. | <L.Q. | 1.653 ± 0.462 | 0.958 ± 0.272 µmol | 0.695 ± 0.190 | <L.Q. | <L.Q. | 

Reference: paper PMC6683251, “Flavanol Bioavailability in Two Cocoa Products with Different Phenolic Content. A Comparative Study in Humans” (Nutrients, 2019)
